From patent US20060128654A1, “Pharmaceutical formulation of cytidine analogs and derivatives” (priority 2004, published 2006)

Assay: Chemical stability of decitabine in cyclodextrin solutions (HPLC potency, % of total peak areas at 220 nm)
Type: physicochemical
Procedure: The chemical stability of decitabine in the cyclodextrin solutions and in the phophate buffer as prepared above was determined. The initial decitabine concentration for all the solutions was 17-18 mg/mL at the beginning of the experiment at 2-8° C.; 9-10 mg/mL at the beginning of the experiment at 25° C. Decitabine potency was assayed by a HPLC method, and expressed as a percentage of total peak areas at 220 nm.

- Stability in aqueous solution with cyclodextrins as excipients (2-8° C., initial 17-18 mg/mL, FIG. 1): dramatically improve the stability
- Stabilization effect at various HPBCD concentrations (25° C., FIG. 3): concentration dependent
- Stability in aqueous solution with cyclodextrins as excipients (25° C., initial 9-10 mg/mL, FIG. 2): dramatically improve the stability
Structure (SMILES): Nc1ncn([C@H]2C[C@H](O)[C@@H](CO)O2)c(=O)n1 [decitabine, 5-aza-2′-deoxycytidine]
